Test results reported in paper PMC9571608, “Detection of Bitterness in Vitamins Is Mediated by the Activation of Bitter Taste Receptors” (Nutrients, 2022).
Values joined by “and” are separate entries in the source; they are usually repeats but may differ in a detail not shown here. Equal entries are not always repeated. Structures can show the parent of a compound that is named as a salt.

Experiments:
[1] = molecular target: T1, TAS2R38 (Homo sapiens, UniProt P59533); experiment: Calcium mobilization assay, cells transiently expressing TAS2R38; format: cell-based; for TAS2R Receptor 38 response: key: +: positive responses (lines with background color)
T1 construct: expressed in transfected cells; host or cells: HEK293T cells stably expressing Gα16gust44
T1 sequence (P59533 1-333): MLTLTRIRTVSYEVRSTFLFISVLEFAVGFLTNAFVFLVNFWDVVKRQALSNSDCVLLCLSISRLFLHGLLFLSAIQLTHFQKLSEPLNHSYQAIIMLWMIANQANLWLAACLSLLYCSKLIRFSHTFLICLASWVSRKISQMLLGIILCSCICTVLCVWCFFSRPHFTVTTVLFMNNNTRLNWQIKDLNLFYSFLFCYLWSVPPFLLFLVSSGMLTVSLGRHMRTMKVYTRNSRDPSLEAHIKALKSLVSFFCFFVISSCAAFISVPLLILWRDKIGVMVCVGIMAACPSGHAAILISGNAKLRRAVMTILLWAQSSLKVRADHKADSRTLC
Protocol: (§1) A functional expression study was carried out as described previously. TAS2R expression vectors (pcDNA5FRT-SST3-TAS2R-HSV and pEAK-10-SST3-TAS2RHSV) were kindly provided by Wolfgang Meyerhof (German Institute of Human Nutrition Postdam-Rehbruecke, Nuthetal, Germany). For all constructs, the N-terminus contained the first 45 amino acids of rat somatostatin 3 (SST3) to improve membrane targeting. A sequence coding for a herpes simplex virus glycoprotein D epitope (HSV-tag) was added at the C-terminus to allow immunocytochemical detection of the receptor [13, 14, 23, 24]. HEK293T cells stably expressing the chimeric G protein α subunit Gα16gust44 [25, 26] were seeded into poly-D-lysine-coated 96-well black plates (0.35 × 10^5 cells/well) in high-glucose DMEM supplemented with 2 mM GlutaMAX, 10% dialysed fetal bovine serum penicillin/streptomycin, and G418 (400 µg/mL), and then placed under a humidified and controlled atmosphere (37 °C and 6.3% CO2) overnight. […]
(§2) Approximately 24–26 h after transfection, cells were loaded for 1 h at 37 °C with Fluo4-AM (2 µM, Molecular Probes), which had been previously mixed with pluronic acid F-127 (0.01%) in C1 buffer (130 mM NaCl, 5 mM KCl, 10 mM HEPES, 2 mM CaCl2, 10 mM pyruvic acid, pH 7.4, 300 mOsm) containing 2.5 mM probenecid (Life Technologies). […] The calcium signal was recorded for 90 s after injection of a range of compounds using a Flexstation 3 fluorometric imaging plate reader (Molecular Devices) at a wavelength of 510 nm after excitation at 488 nm. All substance concentrations were measured in triplicate in at least three independent experiments. […]
(§3) To obtain a dose–response curve, the ratio between the maximum variation in fluorescence after ligand addition and the initial fluorescence before addition (ΔF/F0) was calculated for each well. The fluorescence signals collected for each replicate were averaged for the same substance concentration, and the fluorescence changes in the corresponding mock-transfected cells were subtracted. […]

[2] = tested on: human bitter taste detection (sensory panel); experiment: Human bitter taste detection threshold, three-alternative forced choice (3-AFC), BET method; format: in vivo; details: 32 panelists, group BET
Text: Based on bibliographic studies, preliminary works performed in the laboratory, and the results of taste receptor functional assays, the following vitamins were included in this study: vitamin B1 (thiamine hydrochloride), vitamin B2 (riboflavin phosphate), vitamin B3 (niacinamide), and vitamin B6 (pyridoxine hydrochloride). These vitamins are present in high quantities in nutritional supplements, safe for humans (except at very high concentrations), and can induce a strong bitter taste. These concentrations were determined according to the toxicity threshold of each compound tested and the maximum daily reference intake. These compounds were prepared in commercial mineral water (Evian®, Evian, France).
The threshold values for bitter taste detection were determined by 32 panelists (18–65 years old, 14 males and 18 females, without sensory perception disorders, food allergies, drug treatments, or heart, lung, or cardiac pathologies) who were recruited from Dijon (France) and the surrounding areas. An ethical committee approved this study (Personal Protection Committee of Rennes—Ouest V, protocol code 2018A01342-53), and all panelists signed an informed consent form. A sensory test called three-alternative forced choice (3-AFC) was used in accordance with the protocol detailed in NF ISO 13301. Before performing the measurement sessions, four training sessions were provided to familiarize the panelists with the bitter taste, test procedure, and signal acquisition software. In this discriminative test, six series consisting of three samples, which were each encoded using randomly generated three-digit numbers, were simultaneously delivered to the panelists. The six 3-AFC presentations contained two blank samples (commercial mineral water, manufacturer: Evian, France) and ascending concentrations of vitamin solution. Before the test, subjects were advised that each presentation consisted of two samples that contained only water and one sample that contained a taste. For each 3-AFC presentation, subjects were asked to take the samples sequentially from left to right. Then, they placed the entirety of each sample solution in their mouths and carefully gargled to ensure that the solution was dispersed throughout the mouth. A sip-and-spit procedure was used; subjects rinsed their mouths with commercial mineral water between each series of tests. Subjects were asked to indicate which of the samples contained the stimulus. If a subject perceived no difference between the three samples, he or she was asked to choose one (forced choice). The sensory tests were conducted in a room devoted to sensory evaluation. For the case of colored samples, black-colored glasses were used, and tastings were performed under red light. […] The aim of this sensory analysis was to determine the bitter taste detection threshold for these vitamins and not an olfactory detection threshold. Therefore, the measurements were conducted using pinched nose clips. The subjects waited one minute between each series and had to thoroughly rinse their mouths. Four repetitions were performed per subject for each vitamin to obtain statistically interpretable results, which represented a total of 288 samples. During the sensory analysis session, a bitterness detection threshold of only two vitamins was used (36 samples) to avoid the ingestion of a high vitamin quantity, which is potentially harmful. The answers from the panelists were collected using software dedicated to sensory analysis (FIZZ acquisition V.2.51 software).
The best estimate threshold (BET) method was used to determine the bitter detection threshold for four vitamins. The individual best-estimated detection threshold (BET) was proposed in ASTM E679-04. ASTM E679-04 is a standard practice for the determination of odor and taste thresholds via a forced-choice ascending concentration series method of limits. […]

[3] = tested on: human taste perception; set-up: method as in doi:10.3758/BF03203878; details: concentration omitted in the cited paper; cited from earlier work
[4] = molecular target: T2, TAS2R10 (Homo sapiens, UniProt Q9NYW0); experiment: Calcium mobilization assay, cells transiently expressing TAS2R10; format: cell-based; for TAS2R Receptor 10 response: key: +: positive responses (lines with background color)
T2 construct: expressed in transfected cells; host or cells: HEK293T cells stably expressing Gα16gust44
T2 sequence (Q9NYW0 1-307): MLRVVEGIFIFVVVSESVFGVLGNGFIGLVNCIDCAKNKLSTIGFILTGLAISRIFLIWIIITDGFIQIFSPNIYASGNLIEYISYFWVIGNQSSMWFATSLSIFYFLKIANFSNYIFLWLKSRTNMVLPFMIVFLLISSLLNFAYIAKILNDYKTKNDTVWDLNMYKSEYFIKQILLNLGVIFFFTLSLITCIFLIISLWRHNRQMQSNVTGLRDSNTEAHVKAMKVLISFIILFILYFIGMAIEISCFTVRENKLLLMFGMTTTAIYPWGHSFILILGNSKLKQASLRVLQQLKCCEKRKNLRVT
Protocol: as §1
Approximately one hour after loading, the plate was rinsed twice with 100 µL of C1 buffer. The calcium signal was recorded for 90 s after injection of a range of compounds using a Flexstation 3 fluorometric imaging plate reader (Molecular Devices) at a wavelength of 510 nm after excitation at 488 nm. All substance concentrations were measured in triplicate in at least three independent experiments. […]
(§4) To obtain a dose–response curve, the ratio between the maximum variation in fluorescence after ligand addition and the initial fluorescence before addition (ΔF/F0) was calculated for each well. The fluorescence signals collected for each replicate were averaged for the same substance concentration, and the fluorescence changes in the corresponding mock-transfected cells were subtracted. […] The dose–response data were fitted, and EC50 values were calculated using a four-parameter logistic equation using SigmaPlot software (Systat Software, San Jose, CA, USA). […]

[5] = molecular target: T3, TAS2R14 (Homo sapiens, UniProt Q9NYV8); experiment: Calcium mobilization assay, cells transiently expressing TAS2R14; format: cell-based; for TAS2R Receptor 14 response: key: +: positive responses (lines with background color)
T3 construct: expressed in transfected cells; host or cells: HEK293T cells stably expressing Gα16gust44
T3 sequence (Q9NYV8 1-317): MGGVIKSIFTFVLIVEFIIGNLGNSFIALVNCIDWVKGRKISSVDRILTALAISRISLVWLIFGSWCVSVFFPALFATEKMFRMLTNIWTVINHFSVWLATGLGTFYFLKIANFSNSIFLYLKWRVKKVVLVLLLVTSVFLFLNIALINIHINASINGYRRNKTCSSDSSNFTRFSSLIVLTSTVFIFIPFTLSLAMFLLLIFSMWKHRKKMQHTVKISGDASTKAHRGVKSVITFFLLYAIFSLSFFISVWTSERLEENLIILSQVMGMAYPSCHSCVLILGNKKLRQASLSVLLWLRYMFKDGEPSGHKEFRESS
Protocol: as §1, §2, §3

[6] = tested on: 25 human TAS2Rs; experiment: Taste receptor functional assay, panel of 25 human TAS2Rs; format: cell-based; details: lowest concentration that could elicit TAS2R activation
Protocol: A functional expression study was carried out as described previously. TAS2R expression vectors (pcDNA5FRT-SST3-TAS2R-HSV and pEAK-10-SST3-TAS2RHSV) were kindly provided by Wolfgang Meyerhof (German Institute of Human Nutrition Postdam-Rehbruecke, Nuthetal, Germany). For all constructs, the N-terminus contained the first 45 amino acids of rat somatostatin 3 (SST3) to improve membrane targeting. A sequence coding for a herpes simplex virus glycoprotein D epitope (HSV-tag) was added at the C-terminus to allow immunocytochemical detection of the receptor [13, 14, 23, 24]. […]
as §2

[7] = molecular target: T4, TAS2R7 (Homo sapiens, UniProt Q9NYW3); experiment: Calcium mobilization assay, cells transiently expressing TAS2R7; format: cell-based; set-up: expressed in transfected cells; host or cells: HEK293T cells stably expressing Gα16gust44; for TAS2R Receptor 7 response: key: +: positive responses (lines with background color)
T4 sequence (Q9NYW3 1-318): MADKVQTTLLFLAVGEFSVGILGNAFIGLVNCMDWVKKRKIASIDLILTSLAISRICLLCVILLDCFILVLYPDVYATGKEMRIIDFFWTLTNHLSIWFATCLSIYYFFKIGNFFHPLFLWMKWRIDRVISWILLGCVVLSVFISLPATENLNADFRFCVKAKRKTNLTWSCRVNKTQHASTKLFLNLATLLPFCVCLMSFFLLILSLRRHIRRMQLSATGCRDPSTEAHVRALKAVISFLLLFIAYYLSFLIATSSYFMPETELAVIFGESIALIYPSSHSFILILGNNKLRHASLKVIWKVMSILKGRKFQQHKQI
Protocol: A functional expression study was carried out as described previously. TAS2R expression vectors (pcDNA5FRT-SST3-TAS2R-HSV and pEAK-10-SST3-TAS2RHSV) were kindly provided by Wolfgang Meyerhof (German Institute of Human Nutrition Postdam-Rehbruecke, Nuthetal, Germany). For all constructs, the N-terminus contained the first 45 amino acids of rat somatostatin 3 (SST3) to improve membrane targeting. A sequence coding for a herpes simplex virus glycoprotein D epitope (HSV-tag) was added at the C-terminus to allow immunocytochemical detection of the receptor [13, 14, 23, 24]. HEK293T cells stably expressing the chimeric G protein α subunit Gα16gust44 [25, 26] were seeded into poly-D-lysine-coated 96-well black plates (0.35 × 10^5 cells/well) in high-glucose DMEM supplemented with 2 mM GlutaMAX, 10% dialysed fetal bovine serum penicillin/streptomycin, and G418 (400 µg/mL), and then placed under a humidified and controlled atmosphere (37 °C and 6.3% CO2) overnight. After 24–26 h of incubation, cells were transiently transfected with TAS2R expression plasmids (120 ng/well) using Lipofectamine 2000 reagent (0.4 µL/well) (Thermo Fisher Scientific, Illkirch-Graffenstaden, France).
Approximately 24–26 h after transfection, cells were loaded for 1 h at 37 °C with Fluo4-AM (2 µM, Molecular Probes), which had been previously mixed with pluronic acid F-127 (0.01%) in C1 buffer (130 mM NaCl, 5 mM KCl, 10 mM HEPES, 2 mM CaCl2, 10 mM pyruvic acid, pH 7.4, 300 mOsm) containing 2.5 mM probenecid (Life Technologies). Approximately one hour after loading, the plate was rinsed twice with 100 µL of C1 buffer. The calcium signal was recorded for 90 s after injection of a range of compounds using a Flexstation 3 fluorometric imaging plate reader (Molecular Devices) at a wavelength of 510 nm after excitation at 488 nm. All substance concentrations were measured in triplicate in at least three independent experiments. As cell transfection and substances can interfere with cellular viability and calcium assays, all compounds were tested on mock-transfected cells (cells transfected with empty vectors) on the same plates for all substance concentrations used.
as §4

[8] = HEK293T-Gα16gust44 cells, calcium signal, up to M.A.C
[9] = aqueous solution (mineral water), nose clips

## CC1=C(/C=C/C(C)=C/C=C/C(C)=C/C=O)C(C)(C)CCC1 [Vitamin A, retinal]
[1]; 1 mM
  TAS2R38 activation: strongly activate
[1]; [8]
  TAS2R Receptor 38 response: +
[1]; TAS2R38-expressing HEK293T cells, Fluo-4 calcium response, read-out: EC50 (half-maximal TAS2R38 activation)
  EC50: 290 ± 200 µM

## Cc1cc2nc3c(=O)[nH]c(=O)nc-3n(C[C@H](O)[C@H](O)[C@H](O)COP(=O)(O)O)c2cc1C [Vitamin B2, riboflavin phosphate]
[2]; Figure 3, aqueous solution
  Human Bitter Taste Detection Threshold: 0.65 mM
[2]; [9]
  Human Bitter Taste Detection Threshold: 0.65 mM

## NC(=O)c1cccnc1 [Vitamin B3, niacinamide]
[2]; Figure 3, aqueous solution
  Human Bitter Taste Detection Threshold: 5.5 mM
[2]; [9]
  Human Bitter Taste Detection Threshold: 5.5 mM and 5.50 mM

## C=C1CC[C@H](O)C/C1=C/C=C1\CCC[C@]2(C)[C@@H]([C@H](C)CCCC(C)C)CC[C@@H]12 [Vitamin D, cholecalciferol]
[3]
  Taste described by sensory analysis: tasteless
[4]; 1 mM
  TAS2R10 activation: strongly activate
[4]; [8]
  TAS2R Receptor 10 response: +
[4]; read-out: EC50 (half-maximal TAS2R10 activation), TAS2R10-expressing HEK293T cells, Fluo-4 calcium response
  EC50: 250 ± 200 µM

## Cc1ncc(CO)c(CO)c1O [Vitamin B6, pyridoxine hydrochloride]
[5]; 100 mM
  TAS2R14 response: robust response
[5]; [8]
  TAS2R Receptor 14 response: +
[5]; TAS2R14-expressing HEK293T cells, Fluo-4 calcium response, read-out: EC50 (half-maximal TAS2R14 activation)
  EC50: 10.5 ± 1.47 mM
[6]
  Cellular Bitter Taste Detection Threshold: 1 mM and 1.00 mM
[2]; Figure 3, aqueous solution
  Human Bitter Taste Detection Threshold: 5.2 mM
[2]; aqueous solution (mineral water), nose clips, listed as B6
  Human Bitter Taste Detection Threshold: 5.20 mM
[2]; aqueous solution (mineral water), nose clips, listed as vitamin B6
  Human Bitter Taste Detection Threshold: 5.2 mM
[7]; 100 mM
  TAS2R7 response: robust response
[7]; [8]
  TAS2R Receptor 7 response: +
[7]; TAS2R7-expressing HEK293T cells, Fluo-4 calcium response, read-out: EC50 (half-maximal TAS2R7 activation)
  EC50: 25.5 ± 11.8 mM
